# ChEMBL document CHEMBL5465560, “Selectivity Literature for EUbOPEN Chemogenomic Library” (2024)
# Experiments:
# [1] = target: Dual specificity tyrosine-phosphorylation-regulated kinase 1B (Homo sapiens, UniProt Q9Y463); conditions: at 10 µM
# [2] = target: Tyrosine-protein kinase Srms (Homo sapiens) (UniProt Q9H3Y6); conditions: at 10 µM
# [3] = target: Calcium/calmodulin-dependent protein kinase type II subunit delta (Homo sapiens) (UniProt Q13557); test: Selectivity interaction (Kinase panel (DSF assay)) EUB0001559a CAMK2D
# [4] = target: Tyrosine-protein kinase Yes (Homo sapiens) (UniProt P07947); test: Selectivity interaction (KinomeScan (DiscoverX)) EUB0000666a YES1; conditions: at 10 µM
# [5] = target: T1, Activin receptor type-1B (Homo sapiens) (UniProt P36896); test: Selectivity interaction (KinomeScan (DiscoverX)) EUB0000666a ACVR1B; conditions: at 10 µM
# T1 sequence (whole entry): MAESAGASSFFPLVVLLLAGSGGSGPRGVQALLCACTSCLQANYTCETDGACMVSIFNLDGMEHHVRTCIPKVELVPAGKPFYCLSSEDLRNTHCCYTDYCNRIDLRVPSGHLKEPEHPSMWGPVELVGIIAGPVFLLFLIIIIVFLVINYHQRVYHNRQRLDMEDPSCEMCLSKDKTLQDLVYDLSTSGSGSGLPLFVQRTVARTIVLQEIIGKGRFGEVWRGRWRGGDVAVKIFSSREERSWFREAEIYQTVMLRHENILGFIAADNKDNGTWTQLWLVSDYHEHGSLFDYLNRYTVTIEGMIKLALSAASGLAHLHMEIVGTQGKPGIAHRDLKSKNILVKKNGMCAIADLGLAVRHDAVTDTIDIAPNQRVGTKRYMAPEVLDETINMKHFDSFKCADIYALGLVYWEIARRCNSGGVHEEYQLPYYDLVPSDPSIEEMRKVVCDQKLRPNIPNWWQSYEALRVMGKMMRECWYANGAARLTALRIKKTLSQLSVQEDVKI
# [6] = target: T2, Cyclin-dependent kinase-like 5 (Homo sapiens) (UniProt O76039); conditions: at 10 µM
# T2 sequence (whole entry): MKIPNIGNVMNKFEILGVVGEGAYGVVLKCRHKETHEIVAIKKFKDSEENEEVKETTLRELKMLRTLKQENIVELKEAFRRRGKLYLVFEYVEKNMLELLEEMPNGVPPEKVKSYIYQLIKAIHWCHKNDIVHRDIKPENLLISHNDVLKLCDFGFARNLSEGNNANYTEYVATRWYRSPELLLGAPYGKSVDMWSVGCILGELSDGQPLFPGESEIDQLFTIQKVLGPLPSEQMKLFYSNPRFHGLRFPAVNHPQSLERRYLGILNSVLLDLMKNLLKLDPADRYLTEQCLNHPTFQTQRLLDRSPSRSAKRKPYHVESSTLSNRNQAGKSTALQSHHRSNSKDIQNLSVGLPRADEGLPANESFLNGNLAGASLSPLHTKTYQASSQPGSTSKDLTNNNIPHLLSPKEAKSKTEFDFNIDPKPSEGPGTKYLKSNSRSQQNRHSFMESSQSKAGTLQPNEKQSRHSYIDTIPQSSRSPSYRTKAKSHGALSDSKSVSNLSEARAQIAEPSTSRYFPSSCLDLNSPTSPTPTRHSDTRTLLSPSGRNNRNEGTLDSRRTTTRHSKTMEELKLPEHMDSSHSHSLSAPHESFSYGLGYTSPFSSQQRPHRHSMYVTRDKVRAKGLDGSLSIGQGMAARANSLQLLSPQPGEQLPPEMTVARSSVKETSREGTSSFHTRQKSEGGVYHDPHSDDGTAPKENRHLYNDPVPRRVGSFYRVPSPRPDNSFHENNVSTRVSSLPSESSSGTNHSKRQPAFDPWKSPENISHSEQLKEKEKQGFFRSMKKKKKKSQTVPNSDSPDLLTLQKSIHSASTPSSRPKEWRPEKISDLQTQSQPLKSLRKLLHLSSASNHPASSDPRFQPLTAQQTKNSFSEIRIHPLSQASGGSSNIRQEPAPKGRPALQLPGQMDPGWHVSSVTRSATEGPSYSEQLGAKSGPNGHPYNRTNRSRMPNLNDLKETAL
# [7] = target: Serine/threonine-protein kinase 24 (Homo sapiens) (UniProt Q9Y6E0); test: Selectivity interaction (Kinase panel (Invitrogen)) EUB0000639a STK24; conditions: at 200 nM
# [8] = target: T3, Mitogen-activated protein kinase kinase kinase 2 (Homo sapiens) (UniProt Q9Y2U5); test: Selectivity interaction (ActivX KiNativ screen (kinase selectivity in THP-1 cell lysates)) EUB0000639a MAP3K2; assay type: subcellular; conditions: lysate, at 0.01 µM
# T3 sequence (whole entry): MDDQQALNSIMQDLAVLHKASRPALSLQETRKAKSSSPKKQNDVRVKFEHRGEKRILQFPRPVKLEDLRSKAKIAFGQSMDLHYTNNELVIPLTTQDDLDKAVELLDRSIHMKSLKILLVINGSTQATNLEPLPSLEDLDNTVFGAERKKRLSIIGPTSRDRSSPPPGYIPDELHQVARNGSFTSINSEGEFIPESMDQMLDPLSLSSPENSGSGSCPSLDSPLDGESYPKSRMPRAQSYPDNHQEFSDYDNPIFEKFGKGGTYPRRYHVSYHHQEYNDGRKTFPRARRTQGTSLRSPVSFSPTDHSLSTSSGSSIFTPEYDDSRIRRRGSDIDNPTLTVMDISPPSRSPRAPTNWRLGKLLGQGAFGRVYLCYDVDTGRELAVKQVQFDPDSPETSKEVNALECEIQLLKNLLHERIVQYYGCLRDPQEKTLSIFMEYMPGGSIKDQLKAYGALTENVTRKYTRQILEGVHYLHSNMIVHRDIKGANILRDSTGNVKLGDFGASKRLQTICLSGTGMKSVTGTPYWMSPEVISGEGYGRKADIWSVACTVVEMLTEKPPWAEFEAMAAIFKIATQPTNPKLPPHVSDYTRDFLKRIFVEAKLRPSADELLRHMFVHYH
# [9] = target: Phosphatidylinositol 4-phosphate 3-kinase C2 domain-containing subunit beta (Homo sapiens) (UniProt O00750); test: Selectivity interaction (KinomeScan (DiscoverX)) EUB0000595a PIK3C2B; conditions: at 10 µM
# [10] = target: SRSF protein kinase 2 (Homo sapiens) (UniProt P78362); test: Selectivity interaction (KinomeScan (DiscoverX)) EUB0001619a SRPK2; conditions: at 1 µM
# Sequence of SRSF protein kinase 2 (Homo sapiens) (P78362 whole entry, looked up): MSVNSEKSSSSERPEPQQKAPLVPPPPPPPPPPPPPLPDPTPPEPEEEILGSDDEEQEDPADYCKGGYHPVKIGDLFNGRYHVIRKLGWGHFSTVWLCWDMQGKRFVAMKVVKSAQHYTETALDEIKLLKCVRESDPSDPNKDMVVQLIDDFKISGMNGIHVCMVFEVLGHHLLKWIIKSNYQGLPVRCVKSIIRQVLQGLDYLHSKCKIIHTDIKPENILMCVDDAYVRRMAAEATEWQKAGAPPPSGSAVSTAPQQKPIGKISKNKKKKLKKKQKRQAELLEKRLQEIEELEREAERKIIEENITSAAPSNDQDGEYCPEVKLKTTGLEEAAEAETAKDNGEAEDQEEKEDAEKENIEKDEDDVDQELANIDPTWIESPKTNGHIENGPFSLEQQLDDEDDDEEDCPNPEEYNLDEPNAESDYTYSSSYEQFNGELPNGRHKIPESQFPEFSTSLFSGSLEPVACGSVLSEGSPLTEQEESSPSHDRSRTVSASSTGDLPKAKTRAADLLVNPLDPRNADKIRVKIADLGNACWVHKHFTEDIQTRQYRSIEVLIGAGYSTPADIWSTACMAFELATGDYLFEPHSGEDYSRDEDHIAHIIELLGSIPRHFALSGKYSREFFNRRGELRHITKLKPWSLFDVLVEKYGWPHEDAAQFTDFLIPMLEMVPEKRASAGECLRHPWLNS
# Sequence of Serine/threonine-protein kinase 24 (Homo sapiens) (Q9Y6E0 whole entry, looked up): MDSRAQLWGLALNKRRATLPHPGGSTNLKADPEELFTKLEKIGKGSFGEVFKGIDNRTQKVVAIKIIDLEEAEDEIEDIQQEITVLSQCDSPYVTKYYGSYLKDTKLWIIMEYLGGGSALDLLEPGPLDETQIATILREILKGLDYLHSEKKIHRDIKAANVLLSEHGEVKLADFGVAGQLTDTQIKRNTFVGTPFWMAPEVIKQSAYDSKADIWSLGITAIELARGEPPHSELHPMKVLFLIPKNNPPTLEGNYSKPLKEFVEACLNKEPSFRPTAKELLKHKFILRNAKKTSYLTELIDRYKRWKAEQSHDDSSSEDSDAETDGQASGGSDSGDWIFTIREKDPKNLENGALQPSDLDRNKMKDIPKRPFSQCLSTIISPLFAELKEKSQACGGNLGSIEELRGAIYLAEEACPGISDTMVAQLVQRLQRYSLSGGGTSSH
# Sequence of Calcium/calmodulin-dependent protein kinase type II subunit delta (Homo sapiens) (Q13557 whole entry): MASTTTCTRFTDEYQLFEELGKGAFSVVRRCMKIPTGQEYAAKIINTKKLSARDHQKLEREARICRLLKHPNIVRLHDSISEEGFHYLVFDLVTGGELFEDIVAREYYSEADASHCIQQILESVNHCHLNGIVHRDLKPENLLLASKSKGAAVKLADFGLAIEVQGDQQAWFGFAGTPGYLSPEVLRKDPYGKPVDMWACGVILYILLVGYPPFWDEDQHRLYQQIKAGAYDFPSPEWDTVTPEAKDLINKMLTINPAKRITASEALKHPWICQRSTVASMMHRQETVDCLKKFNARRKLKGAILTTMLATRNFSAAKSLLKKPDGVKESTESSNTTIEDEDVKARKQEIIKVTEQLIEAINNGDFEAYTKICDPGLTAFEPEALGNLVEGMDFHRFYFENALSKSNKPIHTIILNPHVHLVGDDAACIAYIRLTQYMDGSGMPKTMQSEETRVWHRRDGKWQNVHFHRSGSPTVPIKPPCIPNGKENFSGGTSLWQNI
# Sequence of Tyrosine-protein kinase Yes (Homo sapiens) (P07947 2-543 limits assumed): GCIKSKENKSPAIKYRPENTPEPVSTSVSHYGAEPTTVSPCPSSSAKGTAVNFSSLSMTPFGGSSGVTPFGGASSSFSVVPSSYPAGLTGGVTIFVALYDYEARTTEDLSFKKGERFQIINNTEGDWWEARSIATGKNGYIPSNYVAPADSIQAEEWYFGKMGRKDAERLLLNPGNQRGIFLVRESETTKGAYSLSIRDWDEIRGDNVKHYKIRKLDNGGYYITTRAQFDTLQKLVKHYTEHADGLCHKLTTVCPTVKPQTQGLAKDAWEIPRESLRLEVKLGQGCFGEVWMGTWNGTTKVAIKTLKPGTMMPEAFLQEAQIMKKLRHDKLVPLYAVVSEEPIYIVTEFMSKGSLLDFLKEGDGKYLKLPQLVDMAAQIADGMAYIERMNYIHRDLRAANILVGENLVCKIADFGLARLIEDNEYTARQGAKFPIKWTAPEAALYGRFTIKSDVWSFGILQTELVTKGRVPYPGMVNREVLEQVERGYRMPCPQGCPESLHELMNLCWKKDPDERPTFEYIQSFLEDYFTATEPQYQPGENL
# Sequence of Phosphatidylinositol 4-phosphate 3-kinase C2 domain-containing subunit beta (Homo sapiens) (O00750 whole entry, the tested form may be a part): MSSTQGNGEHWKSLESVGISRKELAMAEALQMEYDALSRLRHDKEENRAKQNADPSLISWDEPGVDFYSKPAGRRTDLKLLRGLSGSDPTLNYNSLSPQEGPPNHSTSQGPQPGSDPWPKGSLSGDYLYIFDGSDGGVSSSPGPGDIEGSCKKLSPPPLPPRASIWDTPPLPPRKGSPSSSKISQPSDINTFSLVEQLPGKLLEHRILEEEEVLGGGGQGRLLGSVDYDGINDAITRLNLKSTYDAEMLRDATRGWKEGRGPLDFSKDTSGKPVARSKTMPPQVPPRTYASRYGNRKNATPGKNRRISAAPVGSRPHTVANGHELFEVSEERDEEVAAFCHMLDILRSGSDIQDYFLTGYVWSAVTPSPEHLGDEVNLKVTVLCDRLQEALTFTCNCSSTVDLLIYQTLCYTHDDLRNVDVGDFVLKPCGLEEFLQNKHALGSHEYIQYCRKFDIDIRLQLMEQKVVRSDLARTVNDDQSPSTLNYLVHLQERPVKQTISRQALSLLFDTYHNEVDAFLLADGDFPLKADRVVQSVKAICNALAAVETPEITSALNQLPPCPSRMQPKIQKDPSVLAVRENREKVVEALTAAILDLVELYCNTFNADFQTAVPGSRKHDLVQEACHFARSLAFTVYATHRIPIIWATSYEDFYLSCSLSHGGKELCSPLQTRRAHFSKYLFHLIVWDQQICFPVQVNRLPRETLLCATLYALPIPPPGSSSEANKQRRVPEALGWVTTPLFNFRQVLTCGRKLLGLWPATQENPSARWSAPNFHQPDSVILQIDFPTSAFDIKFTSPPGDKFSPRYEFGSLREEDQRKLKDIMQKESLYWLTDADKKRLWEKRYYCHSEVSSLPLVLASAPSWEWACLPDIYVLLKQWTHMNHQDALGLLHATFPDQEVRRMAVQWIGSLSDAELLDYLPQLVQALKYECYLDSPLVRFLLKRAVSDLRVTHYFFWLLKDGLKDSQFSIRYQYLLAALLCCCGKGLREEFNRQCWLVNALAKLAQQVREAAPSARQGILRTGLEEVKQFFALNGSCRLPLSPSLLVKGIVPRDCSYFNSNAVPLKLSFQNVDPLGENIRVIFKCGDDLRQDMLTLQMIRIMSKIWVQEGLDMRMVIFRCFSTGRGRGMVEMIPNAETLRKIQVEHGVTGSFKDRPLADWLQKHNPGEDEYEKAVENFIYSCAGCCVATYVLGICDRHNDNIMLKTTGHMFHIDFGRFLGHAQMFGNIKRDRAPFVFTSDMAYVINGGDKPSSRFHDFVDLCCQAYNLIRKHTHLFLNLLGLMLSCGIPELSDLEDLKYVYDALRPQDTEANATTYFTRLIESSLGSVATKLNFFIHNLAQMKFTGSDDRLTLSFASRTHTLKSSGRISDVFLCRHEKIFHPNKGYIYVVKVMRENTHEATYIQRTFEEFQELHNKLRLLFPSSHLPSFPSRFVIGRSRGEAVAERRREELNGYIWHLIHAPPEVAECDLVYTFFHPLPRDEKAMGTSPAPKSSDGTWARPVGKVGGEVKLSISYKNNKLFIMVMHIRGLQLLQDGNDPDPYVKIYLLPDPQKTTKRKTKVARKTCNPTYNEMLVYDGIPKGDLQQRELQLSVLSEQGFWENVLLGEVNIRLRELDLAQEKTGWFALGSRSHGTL
# Sequence of Tyrosine-protein kinase Srms (Homo sapiens) (Q9H3Y6 whole entry): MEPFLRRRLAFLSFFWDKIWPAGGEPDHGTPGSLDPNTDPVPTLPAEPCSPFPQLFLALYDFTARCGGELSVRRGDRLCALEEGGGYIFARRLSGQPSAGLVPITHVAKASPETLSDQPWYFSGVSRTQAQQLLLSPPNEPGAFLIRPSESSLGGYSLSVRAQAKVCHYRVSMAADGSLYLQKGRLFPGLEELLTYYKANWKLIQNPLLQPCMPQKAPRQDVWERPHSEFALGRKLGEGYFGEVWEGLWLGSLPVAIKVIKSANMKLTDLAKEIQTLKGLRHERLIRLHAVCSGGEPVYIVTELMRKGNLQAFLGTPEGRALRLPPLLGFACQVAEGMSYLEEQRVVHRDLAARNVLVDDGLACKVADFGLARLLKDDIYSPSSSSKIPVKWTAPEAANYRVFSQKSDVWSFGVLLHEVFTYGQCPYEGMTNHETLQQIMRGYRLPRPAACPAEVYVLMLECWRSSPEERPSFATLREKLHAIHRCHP
# Sequence of Dual specificity tyrosine-phosphorylation-regulated kinase 1B (Q9Y463 whole entry, looked up): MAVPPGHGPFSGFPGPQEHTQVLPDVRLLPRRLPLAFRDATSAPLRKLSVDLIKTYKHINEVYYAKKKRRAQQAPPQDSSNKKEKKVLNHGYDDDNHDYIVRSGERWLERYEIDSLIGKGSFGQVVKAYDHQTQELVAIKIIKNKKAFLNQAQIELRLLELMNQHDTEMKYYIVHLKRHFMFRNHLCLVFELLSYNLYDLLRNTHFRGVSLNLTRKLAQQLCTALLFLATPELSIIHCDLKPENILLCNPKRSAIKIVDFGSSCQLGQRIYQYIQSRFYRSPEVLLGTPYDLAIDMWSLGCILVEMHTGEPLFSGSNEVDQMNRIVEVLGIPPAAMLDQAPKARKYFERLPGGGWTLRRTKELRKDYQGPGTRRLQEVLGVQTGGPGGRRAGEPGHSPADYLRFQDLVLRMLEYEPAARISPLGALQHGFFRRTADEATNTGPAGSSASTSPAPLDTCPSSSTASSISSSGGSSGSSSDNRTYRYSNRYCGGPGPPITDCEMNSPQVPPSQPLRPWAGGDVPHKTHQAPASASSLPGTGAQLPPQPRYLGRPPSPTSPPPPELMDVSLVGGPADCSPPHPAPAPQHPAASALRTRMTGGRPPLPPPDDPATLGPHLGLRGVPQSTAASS
smiles,measurement,setting,value
CCN(CC)CCCCNc1ncc2cc(-c3cc(OC)cc(OC)c3)c(NC(=O)NC(C)(C)C)nc2n1,% of control,[1],100%
same,% of control,[2],100%
CN(C(=O)c1cnn2cccnc12)c1cc2c(cc1N1CCOCC1)C(=O)N(C[C@@H](F)C(C)(C)O)C2,dTM,[3],0 K
O=C(NOC[C@H](O)CO)c1ccc(F)c(F)c1Nc1ccc(I)cc1F,% of control,[4],73%
same,% of control,[5],100%
Cc1cc([C@@H](C)Nc2ccccc2C(=O)O)c2nc(N3CCOCC3)cc(=O)n2c1 [AZD-6482],% of control,[6],74%
CC[C@@H]1[C@H](F)C(=O)N[C@@H]1COc1nccc2cc(C(N)=O)c(OC)cc12 [ZIMLOVISERTIB],% of inhibition,[7],23.2%
same,% of inhibition,[8],8.7%
COCC(=O)NC/C=C/c1ccc2ncnc(Nc3ccc(Oc4ccc(C)nc4)c(C)c3)c2c1 [CP-724714],% of control,[9],88%
N#Cc1cccc(-c2c[nH]c3ncnc(N4CCOCC4)c23)c1,% of control,[10],70%
